Laboratory results as given in patent publication US7588894B2, “Use of ID4 for diagnosis and treatment of cancer” (John Wayne Cancern Institute, priority 2005, dated 2009).
“Also recorded” adds a separate entry of the source.

How the values were obtained:
Type in all cases: cell-based
[1] = system: ID4 mRNA expression in SW480; experiment: ID4 mRNA expression by quantitative real-time reverse transcription-PCR after 5Aza treatment, SW480
Method: (§1) Cell Lines. Three CRC cell lines SW480, DLD1, and LOVO (American Type Culture Collection, Manassas, Va.) were analyzed in this study. Genomic DNA was extracted from cells as described previously (33). Total RNA was extracted with TRI Reagent (Molecular Research Center, Inc., Cincinnati, Ohio) according to the manufacturer's protocol. For ID4 expression restoration study, SW480 and DLD1 were treated with DNA demethylation agent 5-aza-cytidine (5Aza), a known inhibitor of methylation, as described previously (33-35). Cells were seeded at 7×10^5/T-25 flask on day zero; the culture medium was changed on day two, and cells were then treated with 5Aza at final concentrations of 5 ug/mL for 48 hours (SW480 and DLD1) and 10 ug/mL for 72 hours (DLD1). After treatment, cells were harvested for DNA and RNA as described above.
(§2) Analysis of mRNA Expression Level. Reverse-transcriptase reactions were done on 1.0 ug of extracted total RNA with Moloney murine leukemia virus reverse-transcriptase (Promega, Madison, Wis.) with oligodeoxythymidylic acid primers, as described previously (39). Quantitative real-time reverse transcription-PCR assay was done on the iCycler iQ Real-Time thermocycler detection system (Bio-Rad Laboratories, Hercules, Calif.; 39). For each PCR, the reaction mixture consisted of cDNA template synthesized by reverse-transcription from 250 ng of total RNA, 0.2 mmol/L of forward primer (5′-CGCTCACTGCGCTCAACAC-3′), 0.2 mmol/L of reverse primer (5′-TCAGGCGGCCGCACACCT-3′), and 0.6 mmol/L of fluorescence resonance energy transfer probe (5′-FAM-[…]-BHQ-3′). […] Absolute copy numbers were determined by a standard curve with serial dilutions (10^8 to 10^1 copies) of DNA containing ID4 or GAPDH cDNA sequence. […] The expression level of the housekeeping gene GAPDH was measured as an internal reference with a standard curve to determine the integrity of template RNA for all of the specimens. The ratio of ID4 and GAPDH mRNA level was calculated as follows: (absolute copy number of ID4)/(absolute copy number of GAPDH) as described previously (39).

[2] = system: ID4 promoter region in DLD1; experiment: Methylation-specific PCR of ID4 promoter region after 5Aza treatment, DLD1; settings: DLD1, 10 ug/mL of 5Aza for 72 hours; untreated only methylated peaks
Method: (§3) Cell Lines. Three CRC cell lines SW480, DLD1, and LOVO (American Type Culture Collection, Manassas, Va.) were analyzed in this study. Genomic DNA was extracted from cells as described previously (33). Total RNA was extracted with TRI Reagent (Molecular Research Center, Inc., Cincinnati, Ohio) according to the manufacturer's protocol. […] Cells were seeded at 7×10^5/T-25 flask on day zero; the culture medium was changed on day two, and cells were then treated with 5Aza at final concentrations of 5 ug/mL for 48 hours (SW480 and DLD1) and 10 ug/mL for 72 hours (DLD1). After treatment, cells were harvested for DNA and RNA as described above. Sodium bisulfite modification was applied on extracted genomic DNA of tissue specimens or cell lines for methylation-specific PCR or bisulfite sequencing as described previously (33). Detection of Hypermethylation. Methylation status of ID4 promoter region was analyzed by methylation-specific PCR and bisulfite sequencing. […] PCR products were detected and analyzed by CEQ 8000XL capillary array electrophoresis system (Beckman Coulter, Inc., Fullerton, Calif.) with CEQ 8000 software version 6.0 (Beckman Coulter) as described previously (35). Methylation status was determined by the ratio of the signal intensities of methylated and unmethylated PCR products; samples with methylated to unmethylated ratio larger than 0.2 were determined as methylated.

CRC cell lines = experiment: mRNA expression in CRC cell lines after 5Aza treatment (summary statements)
Method: Cell Lines. Three CRC cell lines SW480, DLD1, and LOVO (American Type Culture Collection, Manassas, Va.) were analyzed in this study. Genomic DNA was extracted from cells as described previously (33). Total RNA was extracted with TRI Reagent (Molecular Research Center, Inc., Cincinnati, Ohio) according to the manufacturer's protocol. For ID4 expression restoration study, SW480 and DLD1 were treated with DNA demethylation agent 5-aza-cytidine (5Aza), a known inhibitor of methylation, as described previously (33-35). […]
as §2, with “Reverse-transcriptase reactions were done on 1.0 ug of extracted total RNA with Moloney murine leukemia virus reverse-transcriptase (Promega, Madison, Wis.) with oligodeoxythymidylic acid primers, as described previously (39).” left out, “The ratio of ID4 and GAPDH mRNA level was calculated as follows: (absolute copy number of ID4)/(absolute copy number of GAPDH) as described previously (39).” left out

[3] = system: ID4 promoter region in SW480; experiment: Bisulfite sequencing of ID4 promoter region after 5Aza treatment, SW480; settings: SW480, 5 ug/mL of 5Aza for 48 hours; nontreated cells all CpG sites methylated
Method: as §1
(§4) Sodium bisulfite modification was applied on extracted genomic DNA of tissue specimens or cell lines for methylation-specific PCR or bisulfite sequencing as described previously (33).
(§5) For bisulfite sequencing, the primer set was as follows: forward, 5′-[…]-3′; and reverse, 5′-[…]-3′, with Y═C or T, R=G or A, as described previously (32). […] Sequences were read by CEQ 8000XL capillary array electrophoresis system (Beckman Coulter) with CEQ 8000 software version 6.0 (Beckman Coulter) as described previously (37).

[4] = system: ID4 promoter region in SW480; experiment: Methylation-specific PCR of ID4 promoter region after 5Aza treatment, SW480; settings: SW480, 5 ug/mL of 5Aza for 48 hours; untreated only methylated peaks
Method: as §3

[5] = system: ID4 mRNA expression in DLD1; experiment: ID4 mRNA expression by quantitative real-time reverse transcription-PCR after 5Aza treatment, DLD1
Method: as §1
Analysis of mRNA Expression Level. Reverse-transcriptase reactions were done on 1.0 ug of extracted total RNA with Moloney murine leukemia virus reverse-transcriptase (Promega, Madison, Wis.) with oligodeoxythymidylic acid primers, as described previously (39). Quantitative real-time reverse transcription-PCR assay was done on the iCycler iQ Real-Time thermocycler detection system (Bio-Rad Laboratories, Hercules, Calif.; 39). For each PCR, the reaction mixture consisted of cDNA template synthesized by reverse-transcription from 250 ng of total RNA, 0.2 mmol/L of forward primer (5′-CGCTCACTGCGCTCAACAC-3′), 0.2 mmol/L of reverse primer (5′-TCAGGCGGCCGCACACCT-3′), and 0.6 mmol/L of fluorescence resonance energy transfer probe (5′-FAM-[…]-BHQ-3′). PCR amplification was done in a 20-ul reaction volume for 45 cycles of 30 seconds at 94° C., 30 seconds at 58° C., and 30 seconds at 72° C. with 3 mmol/L of Mg^2+. Absolute copy numbers were determined by a standard curve with serial dilutions (10^8 to 10^1 copies) of DNA containing ID4 or GAPDH cDNA sequence. Analysis without templates was done as a negative control in each study. PCR products were electrophoresed on 2% agarose gels to confirm correct product size and absence of nonspecific bands. The expression level of the housekeeping gene GAPDH was measured as an internal reference with a standard curve to determine the integrity of template RNA for all of the specimens. The ratio of ID4 and GAPDH mRNA level was calculated as follows: (absolute copy number of ID4)/(absolute copy number of GAPDH) as described previously (39).

[6] = system: ID4 promoter region in DLD1; experiment: Bisulfite sequencing of ID4 promoter region after 5Aza treatment, DLD1; settings: DLD1, 10 ug/mL of 5Aza for 72 hours
Method: as §1, §4, §5

## Nc1ncn([C@@H]2O[C@H](CO)[C@@H](O)[C@H]2O)c(=O)n1 [5Aza, 5-aza-cytidine]
[1]; SW480, 5 ug/mL of 5Aza for 48 hours, untreated undetectable (0)
  ID4 copy number: 4.7×10^2 copies/250 ng of total RNA
[1]; SW480, 5Aza-treated, untreated 0
  ID4 expression ratio (ID4 copy number)/(GAPDH copy number): 2.8 × 10^−3
[1]; SW480, 5Aza-treated, untreated 4.6 × 10^6
  GAPDH copy number: 1.7 × 10^5 copies/250 ng of total RNA
[2]
  Methylation-specific PCR result of ID4 promoter: Unmethylated peaks appeared; also recorded: produced an unmethylation-specific peak
CRC cell lines; 5-aza-cytidine treatment
  ID4 mRNA expression in hypermethylated CRC cell lines: could be restored
CRC cell lines; after 5Aza treatment, CRC cell lines
  GAPDH mRNA: decreased
[3]
  Methylation status of CpG sites by bisulfite sequencing: most CpG sites were changed to unmethylated form
[4]
  Methylation-specific PCR result of ID4 promoter: Unmethylated peaks appeared; also recorded: showed an unmethylation-specific peak
[5]; DLD1, 5 ug/mL of 5Aza for 48 hours
  ID4 expression restoration: did not overtly restore ID4 expression
[5]; DLD1, 10 ug/mL of 5Aza for 72 hours, untreated undetectable (0)
  ID4 copy number: 4.8×10^2 copies/250 ng of total RNA
[5]; DLD1, 5Aza-treated, untreated 0
  ID4 expression ratio (ID4 copy number)/(GAPDH copy number): 4.8 × 10^−3
[5]; DLD1, 5Aza-treated, untreated 5.6 × 10^5
  GAPDH copy number: 9.9 × 10^4 copies/250 ng of total RNA
[6]
  Methylation status of CpG sites by bisulfite sequencing: CpG sites partially lost their methylation
